Assay [1] has as its system HUVECs. The experiment in a line: Lipid peroxidation (LPO) assay, MDA amount, in H2O2-exposed cells. The assay is classed as cell-based, Human. Particulars: cells exposed to H2O2.
The test system of assay [2] is Superoxide dismutase (SOD). The assay can be described thus: Superoxide dismutase (SOD) assay in H2O2-treated HUVECs. The assay is classed as cell-based, Human. Particulars: treated before H2O2 treatment. How it is done:
(§1) Human umbilical vein endothelial cells (HUVECs) were treated with each of the 7 types of antioxidants A1-A7, and then an oxidant, hydrogen peroxide, was administered to analyze the degree of cell damage by an MTT assay, and then the activity of superoxide dismutase and catalase was measured.

Assay [3] in a line: DPPH assay of free radical-scavenging activity. The assay is classed as biochemical. Particulars: absorbance at 517 nm for 10 minutes. As to the method: In the present invention, the experiment was carried out with fraxin having a concentration of 0.5 mM, and this concentration is a result of performing an experiment of the free radical-scavenging activity of fraxin using a DPPH assay. A DPPH solution was treated with various concentrations of fraxin (0.02, 0.1 and 0.5 mM), and a change in absorbance was monitored at 517 nm for 10 minutes. The free radical scavenging activity was approximately 10%, 18% or 50% at the fraxin concentration of 0.02, 0.1 or 0.5 mM, respectively, and 0.5 mM was selected for subsequent experiment.
On the technique in general: The DPPH test is a chemical assay of radical scavenging.

Assay [4] relates to HUVECs. The assay can be described thus: Production of reactive oxygen species (ROS), DCF fluorescence, in H2O2-treated HUVECs. The assay is classed as cell-based, Human. Particulars: for reduction of the H2O2-induced increase in ROS level: H2O2-treated HUVECs, DCF fluorescence, H2O2 increases ROS by 55%; for ROS scavenging effect: HUVECs treated with antioxidant, then hydrogen peroxide.

The subject of assay [5] is Human umbilical vein endothelial cells (HUVECs). The assay can be described thus: MTT assay of cell damage in hydrogen peroxide-treated HUVECs (cell regeneration effect). The assay is classed as cell-based. Particulars: HUVECs treated with antioxidant, then hydrogen peroxide. As to the method: as §1
Background: Tetrazolium assays rely on reduction of a dye to a coloured formazan, in cell work by metabolically active cells.

For assay [6] the test system is unchanged. The assay can be described thus: Antioxidant activity screening. The assay is classed as cell-based. Particulars: screening of components with known antioxidant activity. How it is done: Compounds used in the antioxidant activity screening of the present invention are A1 to A7 below:
as §1

For `COc1cc2ccc(=O)oc2c(O[C@@H]2O[C@H](CO)[C@@H](O)[C@H](O)[C@H]2O)c1O` [A3, fraxin], the “reduction of the H2O2-induced increase in MDA amount (LPO)” value in the assay with HUVECs [1] is on record as “greatly reduced”. Further, the SOD activity result in assay [2] is given as “increase”. Also, the “free radical scavenging activity” value in assay [3] (0.02 mM) is on record as “approximately 10%”; in assay [3] (0.1 mM), ~18%; in assay [3] (0.5 mM), ~50%. The “reduction of the H2O2-induced increase in ROS level” value with HUVECs [4] was 39%. Moreover, the ROS scavenging effect entry in the assay on HUVECs [4] was “poor”. The cell regeneration effect result in assay [5] is given as “high”. In addition, in assay [6], the antioxidant activity entry is given as “highest activity”.
In the case of `COC(=O)c1cc(O)c(O)c(O)c1` [A4, methyl gallate], the “reduction of the H2O2-induced increase in MDA amount (LPO)” value in the assay with HUVECs [1] is “greatly reduced”. Further, in the assay with HUVECs [4], the “reduction of the H2O2-induced increase in ROS level” value is given as 24% and the ROS scavenging effect result is on record as “high”. Besides, the cell regeneration effect entry in assay [5] is listed as “high”.
For `C[C@@H]1O[C@@H](O[C@@H]2[C@@H](O)[C@H](OCCc3ccc(O)c(O)c3)O[C@H](CO)[C@H]2OC(=O)/C=C/c2ccc(O)c(O)c2)[C@H](O)[C@H](O)[C@H]1O` [A6, Acteoside], the ROS scavenging effect entry in the assay on HUVECs [4] is reported as “did not show”. Moreover, the cell regeneration effect entry in assay [5] is recorded as “did not show”.
With `O=C(CC(O)(CC(=O)OCc1ccc(O[C@@H]2O[C@H](CO)[C@@H](O)[C@H](O)[C@H]2O)cc1)C(=O)O)OCc1ccc(O[C@@H]2O[C@H](CO)[C@@H](O)[C@H](O)[C@H]2O)cc1` [A7, 1,3-bis[4-(3-D-glucopyranosyl)benzyl]citrate], the ROS scavenging effect result in the assay on HUVECs [4] is on record as “did not show”. Further, the cell regeneration effect entry in assay [5] is reported as “did not show”.
Turning to `O=C(O)c1cc(O)c(O)c(O)c1` [gallic acid], in assay [6], the antioxidant activity entry is listed as “highest activity”.

The values above are taken from patent US11382935B2, “Composition for improving cognitive ability and preventing or treating dementia and attention deficit hyperactivity disorder, comprising Galla rhois extract and fraxin as active ingredients” (priority 2018, dated 2022).
